Data reported in ChEMBL document CHEMBL1201862, “PubChem BioAssay data set” (2004).
Where a name gives a salt, the structure may show the parent alone.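 Five concentrations, 48 hours, 96-well plates. Here, GI50 denotes the concentration required for 50% inhibition of growth.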 Active and inactive are the calls of the source. Cut-off read from the data, not from the text of the source: active = GI50 up to about 1.1 µM and inactive = higher.

Assays:
Experiment in all cases: DTP human tumour cell line panel, 48 h
MOLT-4 = test system: MOLT-4
HOP-62 = test system: HOP-62
K562 = test system: K562
SN12C = test system: SN12C
U-251 = test system: U-251
COLO 205 = test system: COLO 205
SR = test system: SR
A549 = test system: A549
HT-29 = test system: HT-29
UACC-62 = test system: UACC-62
EKVX = test system: EKVX
SNB-78 = test system: SNB-78
UO-31 = test system: UO-31
DMS-273 = test system: DMS-273
DLD-1 = test system: DLD-1
NCI-H522 = test system: NCI-H522
HCT-15 = test system: HCT-15
HOP-92 = test system: HOP-92
OVCAR-5 = test system: OVCAR-5
LXFL 529 = test system: LXFL 529
OVCAR-3 = test system: OVCAR-3
NCI-H23 = test system: NCI-H23
OVCAR-4 = test system: OVCAR-4
DMS-114 = test system: DMS-114
M19-MEL = test system: M19-MEL
HL-60 = test system: HL-60
SF-295 = test system: SF-295
IGROV-1 = test system: IGROV-1
SF-268 = test system: SF-268
XF498 = test system: XF498
M14 = test system: M14
CCRF-CEM = test system: CCRF-CEM
RPMI-8226 = test system: RPMI-8226
SK-MEL-5 = test system: SK-MEL-5
NCI-H460 = test system: NCI-H460
SF-539 = test system: SF-539
SK-MEL-2 = test system: SK-MEL-2
HCT-116 = test system: HCT-116
OVCAR-8 = test system: OVCAR-8
SW-620 = test system: SW-620
SK-OV-3 = test system: SK-OV-3
Malme-3M = test system: Malme-3M
786-0 = test system: 786-0
LOX IMVI = test system: LOX IMVI
NCI-H226 = test system: NCI-H226
ACHN = test system: ACHN
KM12 = test system: KM12
CAKI-1 = test system: CAKI-1
TK-10 = test system: TK-10
KM-20L2 = test system: KM-20L2
HCC 2998 = test system: HCC 2998
SNB-19 = test system: SNB-19
UACC-257 = test system: UACC-257
SK-MEL-28 = test system: SK-MEL-28
RXF 393 = test system: RXF 393
A498 = test system: A498
T47D = test system: T47D
BT-549 = test system: BT-549
MDA-MB-435 = test system: MDA-MB-435
DU-145 = test system: DU-145
MDA-N = test system: MDA-N
PC-3 = test system: PC-3

OCC(O)C(O)C(O)C(O)c1nnn[nH]1 (stereo unspecified)
GI50 (MOLT-4): > 100 µM (inactive) | GI50 (HOP-62): > 100 µM (inactive) | GI50 (K562): > 100 µM (inactive) | GI50 (SN12C): > 100 µM (inactive) | GI50 (U-251): > 100 µM (inactive) | GI50 (COLO 205): > 100 µM (inactive) | GI50 (SR): > 100 µM (inactive) | GI50 (A549): > 100 µM (inactive) | GI50 (HT-29): > 100 µM (inactive) | GI50 (UACC-62): > 100 µM (inactive) | GI50 (EKVX): > 100 µM (inactive) | GI50 (SNB-78): > 100 µM (inactive) | GI50 (UO-31): > 100 µM (inactive) | GI50 (DMS-273): > 100 µM (inactive) | GI50 (DLD-1): > 100 µM (inactive) | GI50 (NCI-H522): > 100 µM (inactive) | GI50 (HCT-15): > 100 µM | GI50 (HOP-92): > 100 µM (inactive) | GI50 (OVCAR-5): > 100 µM (inactive) | GI50 (LXFL 529): > 100 µM (inactive) | GI50 (OVCAR-3): > 100 µM (inactive) | GI50 (NCI-H23): > 100 µM (inactive) | GI50 (OVCAR-4): > 100 µM (inactive) | GI50 (DMS-114): > 100 µM (inactive) | GI50 (M19-MEL): > 100 µM (inactive) | GI50 (HL-60): > 100 µM (inactive) | GI50 (SF-295): > 100 µM (inactive) | GI50 (IGROV-1): > 100 µM (inactive) | GI50 (SF-268): > 100 µM (inactive) | GI50 (XF498): > 100 µM (inactive) | GI50 (M14): > 100 µM (inactive) | GI50 (CCRF-CEM): > 100 µM (inactive) | GI50 (RPMI-8226): > 100 µM (inactive) | GI50 (SK-MEL-5): 78.9 µM (inactive) | GI50 (NCI-H460): > 100 µM (inactive) | GI50 (SF-539): > 100 µM (inactive) | GI50 (SK-MEL-2): > 100 µM (inactive) | GI50 (HCT-116): > 100 µM (inactive) | GI50 (OVCAR-8): > 100 µM (inactive) | GI50 (SW-620): > 100 µM (inactive) | GI50 (SK-OV-3): > 100 µM (inactive) | GI50 (Malme-3M): > 100 µM (inactive) | GI50 (786-0): > 100 µM (inactive) | GI50 (LOX IMVI): > 100 µM (inactive) | GI50 (NCI-H226): > 100 µM (inactive) | GI50 (ACHN): > 100 µM (inactive) | GI50 (KM12): > 100 µM (inactive) | GI50 (CAKI-1): > 100 µM (inactive)

O=C(N/C=C1\C(=O)Oc2ccccc2C1=O)NC1CCCCC1
GI50 (MOLT-4): 62.7 µM (inactive) | GI50 (TK-10): > 100 µM (inactive) | GI50 (HOP-62): 68.4 µM (inactive) | GI50 (KM-20L2): > 100 µM (inactive) | GI50 (SN12C): 39.7 µM (inactive) | GI50 (COLO 205): > 100 µM (inactive) | GI50 (SR): > 100 µM (inactive) | GI50 (HCC 2998): > 100 µM (inactive) | GI50 (A549): > 100 µM (inactive) | GI50 (HT-29): > 100 µM (inactive) | GI50 (UACC-62): 28 µM (inactive) | GI50 (EKVX): > 100 µM (inactive) | GI50 (SNB-78): 22.9 µM (inactive) | GI50 (UO-31): 21.3 µM (inactive) | GI50 (DMS-273): > 100 µM (inactive) | GI50 (HCT-15): 37.3 µM | GI50 (HOP-92): 18.5 µM (inactive) | GI50 (OVCAR-5): > 100 µM (inactive) | GI50 (LXFL 529): 63.1 µM (inactive) | GI50 (NCI-H23): 69 µM (inactive) | GI50 (OVCAR-4): 77.8 µM (inactive) | GI50 (DMS-114): 45.3 µM (inactive) | GI50 (M19-MEL): 73.5 µM (inactive) | GI50 (SNB-19): 42.7 µM (inactive) | GI50 (HL-60): 40 µM (inactive) | GI50 (IGROV-1): 56.5 µM (inactive) | GI50 (SF-268): 41.2 µM (inactive) | GI50 (XF498): 21.4 µM (inactive) | GI50 (UACC-257): 69.7 µM (inactive) | GI50 (M14): 50.2 µM (inactive) | GI50 (RPMI-8226): > 100 µM (inactive) | GI50 (SK-MEL-5): > 100 µM (inactive) | GI50 (NCI-H460): > 100 µM (inactive) | GI50 (SF-539): > 100 µM (inactive) | GI50 (SK-MEL-2): 24.2 µM (inactive) | GI50 (HCT-116): 78.5 µM (inactive) | GI50 (OVCAR-8): > 100 µM (inactive) | GI50 (SW-620): 98.4 µM (inactive) | GI50 (LOX IMVI): 85.3 µM (inactive) | GI50 (NCI-H226): 41.1 µM (inactive) | GI50 (SK-MEL-28): 46.7 µM (inactive) | GI50 (ACHN): 30.5 µM (inactive) | GI50 (RXF 393): 19.9 µM (inactive)

CCN(CC)CCNc1ccc(CO)c2sc3ccccc3c(=O)c12 [HYCANTHONE MESYLATE]
GI50 (MOLT-4): 1.63 µM (inactive) | GI50 (TK-10): 12.1 µM (inactive) | GI50 (A498): 6.1 µM (inactive) | GI50 (KM-20L2): 8.2 µM (inactive) | GI50 (T47D): 11.5 µM (inactive) | GI50 (U-251): 8.89 µM (inactive) | GI50 (SR): 2.83 µM (inactive) | GI50 (BT-549): 13.5 µM (inactive) | GI50 (A549): 5.08 µM (inactive) | GI50 (UACC-62): 14.7 µM (inactive) | GI50 (EKVX): 10.5 µM (inactive) | GI50 (SNB-78): 13.4 µM (inactive) | GI50 (UO-31): 4.1 µM (inactive) | GI50 (DMS-273): 5.57 µM (inactive) | GI50 (NCI-H522): 3.78 µM (inactive) | GI50 (HOP-92): 2.75 µM (inactive) | GI50 (OVCAR-5): 6.95 µM (inactive) | GI50 (NCI-H23): 9.48 µM (inactive) | GI50 (MDA-MB-435): 3.27 µM (inactive) | GI50 (OVCAR-4): 4.45 µM (inactive) | GI50 (DMS-114): 8.71 µM (inactive) | GI50 (M19-MEL): 13.3 µM (inactive) | GI50 (SNB-19): 11.4 µM (inactive) | GI50 (SF-295): 8.26 µM (inactive) | GI50 (SF-268): 6.7 µM (inactive) | GI50 (XF498): 11.6 µM (inactive) | GI50 (UACC-257): 11.6 µM (inactive) | GI50 (RPMI-8226): 12.9 µM (inactive) | GI50 (NCI-H460): 3.05 µM (inactive) | GI50 (SF-539): 11 µM (inactive) | GI50 (DU-145): 9.57 µM (inactive) | GI50 (HCT-116): 3.34 µM (inactive) | GI50 (OVCAR-8): 5.15 µM (inactive) | GI50 (MDA-N): 5.12 µM (inactive) | GI50 (SW-620): 2.75 µM (inactive) | GI50 (PC-3): 5.81 µM (inactive) | GI50 (NCI-H226): 8.91 µM (inactive) | GI50 (SK-MEL-28): 9.68 µM (inactive) | GI50 (RXF 393): 5.19 µM (inactive) | GI50 (CAKI-1): 9.02 µM (inactive)
